In BindingDB's records for patent US9403804 (Janssen Pharmaceutica, 2016):
pIC50: −log10 of the molar value.

Target: Macrophage colony-stimulating factor 1 receptor (Homo sapiens, UniProt P07333)
Experiment: Fluorescence Polarization Competition Immunoassay
Details: pH 7.5; 25 °C
Protocol: The assay buffer used was 100 mM 4-(2-hydroxyethyl)piperazine 1-ethanesulfonic acid (HEPES), pH 7.5, 1 mM 1,4-dithio-DL-threitol (DTT), 0.01% (v/v) Tween-20. Compounds were diluted in assay buffer containing 4% dimethylsulfoxide (DMSO) just prior to the assay. To each well, 5 μL of compound were added followed by the addition of 3 μL of a mix containing 33 nM c-fms (Johnson & Johnson PRD) and 16.7 mM MgCl2 (Sigma) in assay buffer. The kinase reaction was initiated by adding 2 μL of 5 mM ATP (Sigma) in assay buffer. The final concentrations in the assay were 10 nM c-fms, 1 mM ATP, 5 mM MgCl2, 2% DMSO. Control reactions were ran in each plate: in positive and negative control wells, assay buffer (made 4% in DMSO) was substituted for the compound; in addition, positive control wells received 1.2 μL of 50 mM ethylenediaminetetraaceticacid (EDTA). The plates were incubated at room temperature for 45 min. At the end of the incubation, the reaction was quenched with 1.2 μL of 50 mM EDTA (EDTA was not added to the positive control wells at this point; see above). Following a 5-min incubation, each well received 10 μL of a 1:1:3 mixture of anti-phosphotyrosine antibody, 10×, PTK green tracer, 10× (vortexed), FP dilution buffer, respectively (all from PanVera, cat. # P2837). The plate was covered, incubated for 30 min at room temperature and the fluorescence polarization was read on the Analyst. […]

Chain of Macrophage colony-stimulating factor 1 receptor (P07333 whole entry): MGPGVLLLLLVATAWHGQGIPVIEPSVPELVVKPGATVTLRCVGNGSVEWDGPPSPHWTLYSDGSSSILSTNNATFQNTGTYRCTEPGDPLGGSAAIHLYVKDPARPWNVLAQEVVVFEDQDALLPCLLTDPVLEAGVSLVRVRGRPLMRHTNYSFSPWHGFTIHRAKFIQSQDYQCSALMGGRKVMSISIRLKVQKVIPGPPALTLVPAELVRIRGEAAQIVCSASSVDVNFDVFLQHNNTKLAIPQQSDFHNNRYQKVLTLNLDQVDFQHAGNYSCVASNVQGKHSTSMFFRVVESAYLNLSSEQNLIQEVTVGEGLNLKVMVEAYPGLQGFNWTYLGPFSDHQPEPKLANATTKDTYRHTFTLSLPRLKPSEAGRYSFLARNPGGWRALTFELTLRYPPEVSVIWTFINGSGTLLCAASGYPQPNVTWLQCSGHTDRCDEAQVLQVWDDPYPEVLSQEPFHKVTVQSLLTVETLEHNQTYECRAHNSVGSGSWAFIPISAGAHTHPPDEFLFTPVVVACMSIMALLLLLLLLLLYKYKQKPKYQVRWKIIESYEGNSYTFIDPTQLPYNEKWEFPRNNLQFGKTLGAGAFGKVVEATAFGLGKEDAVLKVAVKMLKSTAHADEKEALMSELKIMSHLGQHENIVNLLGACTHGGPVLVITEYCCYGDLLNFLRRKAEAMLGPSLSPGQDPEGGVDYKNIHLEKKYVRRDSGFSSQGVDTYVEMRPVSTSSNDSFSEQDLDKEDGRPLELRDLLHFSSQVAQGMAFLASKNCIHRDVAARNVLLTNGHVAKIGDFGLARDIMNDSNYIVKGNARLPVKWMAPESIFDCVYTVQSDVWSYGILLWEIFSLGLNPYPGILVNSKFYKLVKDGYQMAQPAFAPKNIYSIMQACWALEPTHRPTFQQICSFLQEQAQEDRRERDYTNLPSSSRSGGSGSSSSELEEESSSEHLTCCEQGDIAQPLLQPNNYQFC

Row | Compound | pIC50
1 | CC1(C)CC=C(c2cc([C@]3(O)CC[C@@H](N4CCOCC4)CC3)ccc2NC(=O)c2nc(C#N)c[nH]2)CC1 [US9403804, 44] | 9.14
2 | CC1(C)CC=C(c2cc([C@]3(O)CC[C@H](N4CCOCC4)CC3)ccc2NC(=O)c2nc(C#N)c[nH]2)CC1 [US9403804, 45] | 8.47
